From patent US20230310441A1, “TREATMENT FOR SCHIZOPHRENIA” (TAKEDA PHARMACEUTICAL COMPANY, priority 2020, published 2023)
Marks after values point to notes of the source that are not given here.

How the values were obtained:
[1] = Phase 1 FIH study Part 4: safety and tolerability (TEAEs) in patients with stable schizophrenia; type: in vivo, human
From the text: Part 4 was a double-blind, weekly single dosing, parallel group design in patients with stable schizophrenia.
Participants in the placebo group received placebo on all study dosing days.
In Part 4, participants met schizophrenia criteria as defined by the Diagnostic and Statistical Manual of Mental Disorders, 5th Edition (DSM-5) by the Mini International Neuropsychiatric Interview (MINI), a Positive and Negative Syndrome Scale (PANSS) total score ≤90 and a sum of PANSS N1, N2, N3, N4, N6, G7 and G16≥15 at screening and baseline. In addition, participants had to be on a stable dose of antipsychotic medication for at least two months.
Safety measurements used in the phase 1 study included treatment-emergent adverse events (TEAEs), physical examinations, weight, height, BMI, vital signs, clinical laboratory evaluations, pregnancy monitoring, and ECG procedures.
Participants experiencing two or more different TEAEs were counted only once. Frequent TEAEs were defined as adverse events that occurred in at least two participants in any treatment. Participants were evaluated with respect to mood and alertness (BL-VAS) and suicidality (C-SSRS).

[2] = system: endogenous dopamine release in the human brain; assay: [^11C]PHNO PET of endogenous dopamine release after d-AMPH challenge; type: in vivo; conditions: for ΔΔBPND Mean (SD), Ca / ΔΔBPND Mean (SD), GP / ΔΔBPND Mean (SD), Pu / ΔΔBPND Mean (SD), SN / ΔΔBPND Mean (SD), VSt: attenuation of d-AMPH effect
Procedure: A T1-weighted magnetic resonance imaging (MRI) scan of the brain, performed at screening, was used to obtain anatomical information required for PET data analysis. Each subject underwent three [^11C]PHNO PET scans, one at baseline, the second approximately 3 h after a single oral dose of dex-amphetamine (d-AMPH, 0.5 mg/kg), and the third approximately 5 h after a single oral dose of Compound (I) (20 or 40 mg) and 3 h after an oral dose of dex-amphetamine (d-APMH) (0.5 mg/kg) (FIG. 2).
Subjects were positioned in the PET scanner, after the insertion of a venous cannula in an antecubital or forearm vein. Soft padding and head restraints were used to minimize head movement during data acquisition. All dynamic [^11C]PHNO PET scans were acquired on Siemens Biograph 6 PET/CT scanners (Hi-Rez (PET/CT1) or a TruePoint with TrueV, Siemens Healthcare, Erlangen, Germany). All scans for a particular subject were acquired on the same scanner. A low-dose computed tomography (CT) scan was performed immediately before each PET study to estimate signal attenuation. Following an intravenous bolus injection of [^11C]PHNO, dynamic emission data were acquired for 90 min in 26 frames of increasing duration. The dynamic images were reconstructed using Fourier rebinning and a 2D filtered discrete inverse Fourier transform algorithm with 5 mm isotropic Gaussian filter on a 128×128 matrix with 2.6 zoom giving 2 mm isotropic voxels. Appropriate corrections were applied for attenuation, randoms, and scatter.
The primary set of ROIs defined were the ventral striatum (VSt), putamen (Pu) and cerebellum. […] The cerebellum was used as a reference region. An additional set of ROIs including the caudate nucleus (Ca), globus pallidus (GP) and substantia nigra (SN) was also evaluated.
Regional TAC data extracted from the PET images were fitted using a basis function implementation of the SRTM (Gunn et al., 1997) to estimate the binding potential relative to the non-displaceable component (BPND) for each PET scan, as a measure of specific binding (Innis et al., 2007).
Reduction in [^11C]-PHNO specific binding following a d-AMPH challenge (ΔBPND^APMH) was quantified as percent change in postdose BPND (BPND^AMPH) from baseline BPND (BPND^BL):
Reduction in [^11C]-PHNO specific binding following a combination of Compound (I) and d-AMPH (ΔBPND^APMH+C1) was quantified as percent change in postdose BPND (BPND^AMPH+C1) from baseline BPND (BPND^BL):
The effect of Compound (I) (ΔΔBPND) was quantified as the percent change BPND in ΔBPND^APMH+C1 compared to ΔBPND^APMH:
All statistical comparisons were conducted using Student's t-tests for each ROI, using paired tests for within subject comparisons, and unpaired tests for between group comparisons.

[3] = Part 4 MRD, 160/80 mg, N = 16, participants (percent)

C[C@H](NC(=O)Cn1nnc2ccccc2c1=O)c1ccc(OC(F)(F)F)cc1 [Compound (I), (S)-2-(4-oxobenzo[d][1,2,3]triazin-3(4H)-yl)-N-(1-(4-(trifluoromethoxy)phenyl)ethyl)acetamide]
TEAE intensity ([1]; Part 4 (MRD)): All TEAEs were mild
frequency of TEAEs related to the study drug ([1]; Part 4 (MRD), patients with schizophrenia who received Compound (I)): 56.3%
Any TEAE [1, 3]: 9 (56.3)
TEAE Mild [1, 3]: 9 (56.3)
TEAE Related [1, 3]: 9 (56.3)
dose effect on ΔΔBPND, 40 mg group vs 20 mg group ([2]; Pu and GP, one-tailed t-tests, p<0.01): significantly greater than that in the 20 mg group
effect of pre-treatment on the d-AMPH challenge ([2]; all ROI, significant in Pu, VSt and SN): attenuated the effect of the d-AMPH challenge in all ROI examined
ΔΔBPND Mean (SD), Ca ([2]; 20 mg single oral dose): −4.2 (59.2) %
ΔΔBPND Mean (SD), GP ([2]; 20 mg single oral dose): −3.2 (19.7) %
ΔΔBPND Mean (SD), Pu ([2]; 20 mg single oral dose): 16.4 (11.3)* %
ΔΔBPND Mean (SD), SN ([2]; 20 mg single oral dose): 25.6 (49.7) %
ΔΔBPND Mean (SD), VSt ([2]; 20 mg single oral dose): 13.8 (14.1)* %
ΔΔBPND Mean (SD), Ca ([2]; 40 mg single oral dose): 24.8 (26.7) %
ΔΔBPND Mean (SD), GP ([2]; 40 mg single oral dose): 66.6 (32.4) %
ΔΔBPND Mean (SD), Pu ([2]; 40 mg single oral dose): 36.4 (7.7) * %
ΔΔBPND Mean (SD), SN ([2]; 40 mg single oral dose): 40.8 (58.6) %
ΔΔBPND Mean (SD), VSt ([2]; 40 mg single oral dose): 22.6 (20.3) %
ΔΔBPND Mean (SD), Ca ([2]; all subjects (20 or 40 mg)): 10.3 (45.9) %
ΔΔBPND Mean (SD), GP ([2]; all subjects (20 or 40 mg)): 31.7 (44.6) %
ΔΔBPND Mean (SD), Pu ([2]; all subjects (20 or 40 mg)): 26.4 (13.9)* %
ΔΔBPND Mean (SD), SN ([2]; all subjects (20 or 40 mg)): 33.2 (51.8)* %
ΔΔBPND Mean (SD), VSt ([2]; all subjects (20 or 40 mg)): 18.2 (17.1)* %
blood-brain barrier crossing ([2]; healthy human volunteers): readily crossed the blood-brain barrier
modulation of dopamine release ([2]; healthy human volunteers, 20 or 40 mg single oral dose): dose-dependent modulation of dopamine release
